Laboratory results from article PMC10113214 (Scientific Reports, 2023).

What was measured:
46BR.1N fibroblasts = experiment: LDH cytotoxicity assay, 46BR.1N; format: cell-based, human; details: 150 µg/ml, 48 h, 3 independent experiments, n = 12
Procedure: Human HaCaT keratinocytes (DKFZ, Heidelberg, Germany)[47],[48], the human dermal fibroblast 46BR.1N cell line (ECACC, Sigma Aldrich Co.) and human primary dermal fibroblasts used in this study were routinely cultured in culture flasks (growth surface area: 25 cm^2) in DMEM-HG medium supplemented with 10% fetal bovine serum, 100 U/mL penicillin and […] streptomycin under standard conditions.
Briefly, the HaCaT and 46BR.1N cells were seeded in 96-well plates at a density of 5000 per well. Cell stimulation with RADA derivatives was performed using a protocol described before[49],[50]. Both assays were performed according to the manufacturers’ instructions (XTT- Roche, Cat. No. 11465015001; LDH- Takara, Cat. No. MK401).

Rheology of hydrogels = format: physicochemical; details: 1% hydrogel, 37 °C
Procedure: Rheological parameters of the hydrogels were identified using an MCR 302 rheometer (Anton Paar GmbH, Graz, Austria). The rheometer was equipped with a CP50-1 stainless steel cone-and-plate system of 50 mm diameter, 1° cone angle and 50 µm cone truncation and a Peltier controlled temperature unit. An aliquot of 900 µL of 1% hydrogel was applied to a plate cone. The linear viscoelastic (LVE) region was determined through an amplitude sweeps: shear strain (0.01–100% at 6 rad s^−1) and shear stress (0.001–10 Pa at 6.28 rad s^−1). Frequency sweep were measured from 0.01 to 100 rad s^−1 at 2.5% strain. The frequency dependence of the storage modulus (G’) and loss modulus (G”) of the hydrogels were measured at 37 °C. All experiments were carried out in triplicate and reported as the mean of three repeats.

[1] = target: T1, Human neutrophil elastase (Homo sapiens, UniProt P08246); experiment: Elastase enzymatic cleavage; format: in vitro ADME; details: human neutrophil elastase 150 nM, peptide 1 mM, 30 min, 37 °C; for identified fragments of peptides after elastase digestion (most abundant MS signals): 300 rpm, 0.1 M Tris HCl, 500 mM NaCl, 0.05% Triton X-100, 20 mM CaCl2 pH 7.5, HPLC and MALDI or LC-MS
T1 construct: purchased Sigma-Aldrich
T1 sequence (P08246 30-267): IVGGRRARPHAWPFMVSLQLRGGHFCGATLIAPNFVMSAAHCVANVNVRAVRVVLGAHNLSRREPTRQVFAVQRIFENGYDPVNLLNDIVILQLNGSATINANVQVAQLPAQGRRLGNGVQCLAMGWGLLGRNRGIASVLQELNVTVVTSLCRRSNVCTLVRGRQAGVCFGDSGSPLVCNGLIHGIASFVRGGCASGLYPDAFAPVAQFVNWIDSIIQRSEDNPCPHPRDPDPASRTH
Procedure: Human neutrophil elastase (EC No. 3.4.21.37, Sigma-Aldrich) was used to study peptide susceptibility to that enzyme. Peptides were dissolved in 0.1 M Tris HCl, 500 mM NaCl, 0.05% Triton X-100, 20 mM CaCl2 pH 7.5 buffer mixture. Peptides (final concentration 1 mM) were mixed with the enzyme (final concentration 150 nM) and incubated for 30 min. in a thermoshaker (37 °C, 300 rpm). The reaction was stopped by a 10% aqueous solution of TFA. The results were analyzed using HPLC and MALDI or LC–MS. Details of this experiment are described in the Supplementary Data.

[2] = test system: full-thickness excisional dorsal skin wounds; experiment: Skin wound healing model in mice; format: in vivo, BALB/c mice
Procedure: Eight to ten-week-old BALB/c female mice were used for these experiments. All experimental procedures were approved by the Local Ethics Committee for Animal Experimentation in Bydgoszcz, Poland (Approval No. 49/2016). The study was conducted in compliance with the ARRIVE gudidelines. All animal handling methods were carried out in accordance with European Union Commission Recommendation of 18 June 2007 on guidelines for the accommodation and care of animals used for experimental and other scientific purposes. Before experiments, mice were randomized and divided into groups comprising six individuals. The mice were anaesthetized with inhaled 2–5% isoflurane. The skin on the dorsum was shaved and disinfected. After the skin was folded and raised cranially and caudally along the spine, the mouse was placed in a lateral position, and the folded skin was pierced with a 6.0 mm biopsy punch to make two through-and-through symmetrical wounds. Next, 10 µL of peptide hybrid hydrogel was applied onto each wound. Every gel was prepared in sterile conditions in biological safety cabinet, using sterile water to final concentration of 10 mg/ml (1%). Then the gels were incubated for 24 h allowing it to assemble. Control mice were treated with RADA16-I. The wounds were covered with a transparent Tegaderm TM dressing to protect the wound from outer environment of the cage and other animals. It was fastened with an adhesive plaster wrapped around the animal’s torso. The peptide hybrids were applied daily to the wounds for five consecutive days. The dressings were replaced daily in the first five days of the experiment and every second day until the end of the second week of the experiment. To measure the wound areas the wounds were photographed with a ruler placed next to the injury site. Wound areas were calculated using the computer-assisted image analysis program ImageJ[51].

[3] = Circular dichroism, conformation and thermal stability of β-sheet; format: physicochemical
Procedure: The molar ellipticity of peptides were registered on a Jasco J-815 spectrometer (JASCO, Easton, MD, USA). Solutions of peptide hybrids were prepared in water solution (10 mg/ml), incubated at 37 °C for 4 h and then diluted to a final concentration of 0.20 mg/ml. CD spectra measurements were performed at 25 °C, 30 °C, 35 °C, 40 °C, 45 °C, 50 °C, 55 °C and 60 °C, at 190–260 nm wavelength and at a scan speed of […]. The background of the solvent was subtracted. The results are presented as the relationship of mean residue molar ellipticity (MRME) [deg × cm^2 × dmol^−1] to wavelength [nm]. Measurements were performed in triplicate. In order to determine the peptides’ denaturation temperatures, the molar ellipticity rotatory angle at a fixed wavelength of 196 nm, [θ]196, was measured as a function of temperature (max 100 °C). CD temperature measurements were carried out up to a temperature of 100 °C. Above this temperature, the cure was extrapolated with GraphPad Prism 8 software using the 4PL curve fit function. The denaturation temperature was determined as the temperature at which the change in ellipticity (θ) was half complete.

[4] = Transmission electron microscopy of nanofibres; format: physicochemical; details: 1% gel in PBS diluted to 0.001%, uranyl acetate stain
Procedure: 1% gel solutions were prepared and incubated in PBS. The samples were then diluted to 0.001% concentration. A drop of solution was applied to a microcellulose membrane and stained with a 1.5% solution of uranyl acetate. The images were registered on a Tecnai Spirit BioTwin FEI Transmission Electron Microscope operating at 120 kV.

For CC(=O)N[C@@H](CCCNC(=N)N)C(=O)N[C@@H](C)C(=O)N[C@@H](CC(=O)O)C(=O)N[C@@H](C)C(=O)N[C@@H](CCCNC(=N)N)C(=O)N[C@@H](C)C(=O)N[C@@H](CC(=O)O)C(=O)N[C@@H](C)C(=O)N[C@@H](CCCNC(=N)N)C(=O)N[C@@H](C)C(=O)N[C@@H](CC(=O)O)C(=O)N[C@@H](C)C(=O)N[C@@H](CCCNC(=N)N)C(=O)N[C@@H](C)C(=O)N[C@@H](CC(=O)O)C(=O)N[C@@H](C)C(=O)NCC(=O)NCC(=O)NCC(=O)N[C@@H](C)C(=O)N[C@@H](C)C(=O)N1CCC[C@H]1C(=O)N[C@H](C(=O)NCC(=O)NCC(=O)NCC(=O)N[C@@H](Cc1c[nH]cn1)C(=O)N[C@@H](CCCCN)C(N)=O)C(C)C [RADA-GHK, Ac-(Arg-Ala-Asp-Ala)4-Gly-Gly-Gly-Ala-Ala-Pro-Val-Gly-Gly-Gly-His-Lys-NH2], the “cytotoxicity (LDH), slight effect” value (46BR.1N fibroblasts) was “ca. 15%”, the “storage modulus G’” value (Rheology of hydrogels; cone-plate, frequency sweep 0.01–100 rad s−1 at 2.5% strain (Fig. 9 legend: 1%), mean of three repeats) was 550 Pa and the “shear strain above which the gel behaves like a liquid (G” > G’)” value (Rheology of hydrogels; strain sweep, ω = 6.28 rad/s) was “above 30%”. The “identified fragments of peptides after elastase digestion (most abundant MS signals)” value ([1]; fragment Ac-(RADA)4-GGG-AAPV-COOH) was “Ac-(RADA)4-GGG-AAPV-COOH”, the “identified fragments of peptides after elastase digestion (most abundant MS signals)” value ([1]; fragment NH2 -GHK-NH2) was “NH2 -GHK-NH2” and the “main / predominant fragments of elastase digestion” value ([1]; pH 7.5 buffer, HPLC, mass spectrometry) was “Gly^26His^27Lys^28”. For the same molecule, the “wound closure on day 7” value ([2]; BALB/c female mice, 6.0 mm punch dorsal wounds, 10 µL 1% hydrogel topically daily for five days, n = 6, SD) was 41.8 ± 16.1%, the “wound healing compared to RADA16-I” value ([2]; BALB/c mice, 1% hydrogel topically, day 2 up to day 14) was “Accelerated wound healing” and the “heat stability of β-sheet structure (rank)” value ([3]; CD scans at different temperatures) was “highest”. For the same molecule, the “temperature of first disruption of the β-sheets” value ([3]; CD, [θ]196 nm as function of temperature 4–100 °C, gel 10 mg/ml in water, 37 °C 4 h, diluted to 0.20 mg/ml, decrease of molar ellipticity) was roughly 65 °C, the “transition temperature (half β-conformation, half disordered)” value ([3]; CD, [θ]196 nm vs temperature, 0.20 mg/ml in water, above 100 °C curve extrapolated, 4PL fit) was 94 °C and the “fibre thickness (TEM)” value [4] was “about 3 nm”.
